Measured values published in PubChem BioAssay AID1259407 (Chemical Carcinogenesis Research Information System (CCRIS), 2018).
Calls of active or inactive are those of the source. The rule behind the calls is not given here.

Tested on: CCRIS mutagenicity, Ames/micronucleus/aberration tests
Assay: CCRIS mutagenicity studies
[1] = Test System: AMES SALMONELLA TYPHIMURIUM, Strain/Indicator: TA97, Metabolic Activation: NONE, Method: PREINCUBATION
[2] = Test System: AMES SALMONELLA TYPHIMURIUM, Strain/Indicator: TA97, Metabolic Activation: RAT, LIVER, S-9, AROCLOR 1254 (10%), Method: PREINCUBATION
[3] = Test System: AMES SALMONELLA TYPHIMURIUM, Strain/Indicator: TA98, Metabolic Activation: NONE, Method: PREINCUBATION
[4] = Test System: AMES SALMONELLA TYPHIMURIUM, Strain/Indicator: TA98, Metabolic Activation: NONE, Method: STANDARD PLATE
[5] = Test System: AMES SALMONELLA TYPHIMURIUM, Strain/Indicator: TA98, Metabolic Activation: RAT, LIVER, S-9, AROCLOR 1254 (10%), Method: PREINCUBATION
[6] = Test System: AMES SALMONELLA TYPHIMURIUM, Strain/Indicator: TA98, Metabolic Activation: RAT, LIVER, S-9, AROCLOR 1254, Method: STANDARD PLATE
[7] = Test System: AMES SALMONELLA TYPHIMURIUM, Strain/Indicator: TA100, Metabolic Activation: NONE, Method: PREINCUBATION
[8] = Test System: AMES SALMONELLA TYPHIMURIUM, Strain/Indicator: TA100, Metabolic Activation: NONE, Method: STANDARD PLATE
[9] = Test System: AMES SALMONELLA TYPHIMURIUM, Strain/Indicator: TA100, Metabolic Activation: RAT, LIVER, S-9, AROCLOR 1254 (10%), Method: PREINCUBATION
[10] = Test System: AMES SALMONELLA TYPHIMURIUM, Strain/Indicator: TA100, Metabolic Activation: RAT, LIVER, S-9, AROCLOR 1254, Method: STANDARD PLATE
[11] = Test System: AMES SALMONELLA TYPHIMURIUM, Strain/Indicator: TA1535, Metabolic Activation: NONE, Method: STANDARD PLATE
[12] = Test System: AMES SALMONELLA TYPHIMURIUM, Strain/Indicator: TA1535, Metabolic Activation: RAT, LIVER, S-9, AROCLOR 1254, Method: STANDARD PLATE
[13] = Test System: AMES SALMONELLA TYPHIMURIUM, Strain/Indicator: TA1537, Metabolic Activation: NONE, Method: STANDARD PLATE
[14] = Test System: AMES SALMONELLA TYPHIMURIUM, Strain/Indicator: TA1537, Metabolic Activation: RAT, LIVER, S-9, AROCLOR 1254, Method: STANDARD PLATE
[15] = Test System: AMES SALMONELLA TYPHIMURIUM, Strain/Indicator: TA1538, Metabolic Activation: NONE, Method: STANDARD PLATE
[16] = Test System: AMES SALMONELLA TYPHIMURIUM, Strain/Indicator: TA1538, Metabolic Activation: RAT, LIVER, S-9, AROCLOR 1254, Method: STANDARD PLATE

FC(F)(F)c1ccccc1Cl
mutagenic call (Test System: AMES SALMONELLA TYPHIMURIUM, Strain/Indicator: TA97, Metabolic Activation: HAMSTER, LIVER, S-9, AROCLOR 1254 (10%), Method: PREINCUBATION): inactive; negative
mutagenic call (Test System: AMES SALMONELLA TYPHIMURIUM, Strain/Indicator: TA97, Metabolic Activation: HAMSTER, LIVER, S-9, AROCLOR 1254 (30%), Method: PREINCUBATION): inactive; negative
mutagenic call [1]: inactive; negative
mutagenic call [2]: inactive; negative
mutagenic call (Test System: AMES SALMONELLA TYPHIMURIUM, Strain/Indicator: TA97, Metabolic Activation: RAT, LIVER, S-9, AROCLOR 1254 (30%), Method: PREINCUBATION): inactive; negative
mutagenic call (Test System: AMES SALMONELLA TYPHIMURIUM, Strain/Indicator: TA98, Metabolic Activation: HAMSTER, LIVER, S-9, AROCLOR 1254 (10%), Method: PREINCUBATION): inactive; negative
mutagenic call (Test System: AMES SALMONELLA TYPHIMURIUM, Strain/Indicator: TA98, Metabolic Activation: HAMSTER, LIVER, S-9, AROCLOR 1254 (30%), Method: PREINCUBATION): inactive; negative
mutagenic call [3]: inactive; negative
mutagenic call [4]: inactive; negative
mutagenic call [5]: inactive; negative
mutagenic call (Test System: AMES SALMONELLA TYPHIMURIUM, Strain/Indicator: TA98, Metabolic Activation: RAT, LIVER, S-9, AROCLOR 1254 (30%), Method: PREINCUBATION): inactive; negative
mutagenic call [6]: inactive; negative
mutagenic call (Test System: AMES SALMONELLA TYPHIMURIUM, Strain/Indicator: TA100, Metabolic Activation: HAMSTER, LIVER, S-9, AROCLOR 1254 (10%), Method: PREINCUBATION): inactive; negative
mutagenic call (Test System: AMES SALMONELLA TYPHIMURIUM, Strain/Indicator: TA100, Metabolic Activation: HAMSTER, LIVER, S-9, AROCLOR 1254 (30%), Method: PREINCUBATION): inactive; negative
mutagenic call [7]: inactive; negative
mutagenic call [8]: inactive; negative
mutagenic call [9]: inactive; negative
mutagenic call (Test System: AMES SALMONELLA TYPHIMURIUM, Strain/Indicator: TA100, Metabolic Activation: RAT, LIVER, S-9, AROCLOR 1254 (30%), Method: PREINCUBATION): inactive; negative
mutagenic call [10]: inactive; negative
mutagenic call (Test System: AMES SALMONELLA TYPHIMURIUM, Strain/Indicator: TA1535, Metabolic Activation: HAMSTER, LIVER, S-9, AROCLOR 1254 (10%), Method: PREINCUBATION): inactive; negative
mutagenic call (Test System: AMES SALMONELLA TYPHIMURIUM, Strain/Indicator: TA1535, Metabolic Activation: HAMSTER, LIVER, S-9, AROCLOR 1254 (30%), Method: PREINCUBATION): inactive; negative
mutagenic call (Test System: AMES SALMONELLA TYPHIMURIUM, Strain/Indicator: TA1535, Metabolic Activation: NONE, Method: PREINCUBATION): inactive; negative
mutagenic call [11]: inactive; negative
mutagenic call (Test System: AMES SALMONELLA TYPHIMURIUM, Strain/Indicator: TA1535, Metabolic Activation: RAT, LIVER, S-9, AROCLOR 1254 (10%), Method: PREINCUBATION): inactive; negative
mutagenic call (Test System: AMES SALMONELLA TYPHIMURIUM, Strain/Indicator: TA1535, Metabolic Activation: RAT, LIVER, S-9, AROCLOR 1254 (30%), Method: PREINCUBATION): inactive; negative
mutagenic call [12]: inactive; negative
mutagenic call (Test System: AMES SALMONELLA TYPHIMURIUM, Strain/Indicator: TA1537, Metabolic Activation: HAMSTER, LIVER, S-9, AROCLOR 1254 (30%), Method: PREINCUBATION): inactive; negative
mutagenic call (Test System: AMES SALMONELLA TYPHIMURIUM, Strain/Indicator: TA1537, Metabolic Activation: NONE, Method: PREINCUBATION): inactive; negative
mutagenic call [13]: inactive; negative
mutagenic call (Test System: AMES SALMONELLA TYPHIMURIUM, Strain/Indicator: TA1537, Metabolic Activation: RAT, LIVER, S-9, AROCLOR 1254 (30%), Method: PREINCUBATION): inactive; negative
mutagenic call [14]: inactive; negative
mutagenic call [15]: inactive; negative
mutagenic call [16]: inactive; negative

CCCCN(C)N=O
mutagenic call (Test System: AMES SALMONELLA TYPHIMURIUM, Strain/Indicator: TA100, Metabolic Activation: RAT, LIVER, S-9, KC500 OR PHENOBARBITAL, Method: LIQUID SUSPENSION): active; positive

CCC/C=N/O
mutagenic call (Test System: AMES SALMONELLA TYPHIMURIUM, Strain/Indicator: TA98, Metabolic Activation: HAMSTER, LIVER, S-9, AROCLOR 1254, Method: STANDARD PLATE): inactive; negative
mutagenic call [4]: inactive; negative
mutagenic call [6]: inactive; negative
mutagenic call (Test System: AMES SALMONELLA TYPHIMURIUM, Strain/Indicator: TA100, Metabolic Activation: HAMSTER, LIVER, S-9, AROCLOR 1254, Method: STANDARD PLATE): inactive; negative
mutagenic call [8]: inactive; negative
mutagenic call [10]: inactive; negative
mutagenic call (Test System: AMES SALMONELLA TYPHIMURIUM, Strain/Indicator: TA1535, Metabolic Activation: HAMSTER, LIVER, S-9, AROCLOR 1254, Method: STANDARD PLATE): inactive; negative
mutagenic call [11]: inactive; negative
mutagenic call [12]: inactive; negative
mutagenic call (Test System: AMES SALMONELLA TYPHIMURIUM, Strain/Indicator: TA1537, Metabolic Activation: HAMSTER, LIVER, S-9, AROCLOR 1254, Method: STANDARD PLATE): inactive; negative
mutagenic call [13]: inactive; negative
mutagenic call [14]: inactive; negative
mutagenic call (Test System: AMES SALMONELLA TYPHIMURIUM, Strain/Indicator: TA1538, Metabolic Activation: HAMSTER, LIVER, S-9, AROCLOR 1254, Method: STANDARD PLATE): inactive; negative
mutagenic call [15]: inactive; negative
mutagenic call [16]: inactive; negative
mutagenic call (Test System: MOUSE LYMPHOMA, Strain/Indicator: L5178Y (TK+/TK-), Metabolic Activation: NONE, Method: SUSPENSION/PLATE): active; positive. reevaluation of results: positive
mutagenic call (Test System: MOUSE LYMPHOMA, Strain/Indicator: L5178Y (TK+/TK-), Metabolic Activation: RAT, LIVER, S-9, AROCLOR 1254, Method: SUSPENSION/PLATE): inactive; negative. reevaluation of results: negative

[O-][n+]1cc2cnccc2cn1
mutagenic call [3]: active; positive
mutagenic call (Test System: AMES SALMONELLA TYPHIMURIUM, Strain/Indicator: TA98, Metabolic Activation: RAT, LIVER, S-9, PCB, Method: PREINCUBATION): active; positive
mutagenic call [7]: inactive; negative
mutagenic call (Test System: AMES SALMONELLA TYPHIMURIUM, Strain/Indicator: TA100, Metabolic Activation: RAT, LIVER, S-9, PCB, Method: PREINCUBATION): inactive; negative

COC(=O)c1ccc(/C=N/n2nnc3c([nH]c4ccccc43)c2=O)cc1
mutagenic call [1]: active; positive
mutagenic call [2]: active; positive
mutagenic call [3]: active; positive
mutagenic call [5]: active; positive
mutagenic call [7]: inactive; negative
mutagenic call [9]: active; positive
mutagenic call (Test System: AMES SALMONELLA TYPHIMURIUM, Strain/Indicator: TA102, Metabolic Activation: NONE, Method: PREINCUBATION): inactive; negative
mutagenic call (Test System: AMES SALMONELLA TYPHIMURIUM, Strain/Indicator: TA102, Metabolic Activation: RAT, LIVER, S-9, AROCLOR 1254 (10%), Method: PREINCUBATION): active; positive

CC(Br)C(=O)NCc1ccccc1 (stereo not given)
mutagenic call (Test System: AMES SALMONELLA TYPHIMURIUM, Strain/Indicator: TA100, Metabolic Activation: MOUSE, LIVER, S-9, AROCLOR 1254, Method: STANDARD PLATE): active; positive
mutagenic call [8]: active; positive
